{
  "source": "paper PMC2784226",
  "about": "“Degradation of Host Sphingomyelin Is Essential for Leishmania Virulence” (PLoS Pathogens, 2009)",
  "biological_target": "T1, ScISC1 (Saccharomyces cerevisiae, UniProt P40015)",
  "T1 construct": "gene ISC1; full-length ORF expressed in L. major iscl- null mutant; whole cell lysate",
  "T1 sequence (P40015 whole entry)": "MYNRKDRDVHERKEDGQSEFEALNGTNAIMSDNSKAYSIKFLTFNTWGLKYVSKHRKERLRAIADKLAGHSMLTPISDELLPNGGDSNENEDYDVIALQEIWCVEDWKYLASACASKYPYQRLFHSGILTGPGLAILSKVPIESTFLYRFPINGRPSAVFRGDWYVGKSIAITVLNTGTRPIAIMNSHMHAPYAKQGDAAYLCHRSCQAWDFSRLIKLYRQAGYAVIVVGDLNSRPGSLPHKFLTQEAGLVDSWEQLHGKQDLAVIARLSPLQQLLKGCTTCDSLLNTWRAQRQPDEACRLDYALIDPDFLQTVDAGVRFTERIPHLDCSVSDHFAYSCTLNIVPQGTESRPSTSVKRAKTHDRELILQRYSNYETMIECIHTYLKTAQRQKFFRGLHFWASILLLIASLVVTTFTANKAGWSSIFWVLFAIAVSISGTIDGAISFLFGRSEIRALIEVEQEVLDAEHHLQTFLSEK",
  "assay": "TLC of NBD-ceramide, intact parasites and whole cell lysate",
  "type": "cell-based",
  "settings": "labelled compound; expressed in iscl- null mutant",
  "data": [
    {"molecule": "CCCCCCCCCCCCC/C=C/[C@@H](O)[C@H](COP(=O)([O-])OCC[N+](C)(C)C)NC(=O)CCCCCNc1ccc([N+](=O)[O-])c2nonc12", "note": "[NBD C6-sphingomyelin, N-[6-[(7-nitro-2-1,3-benzoxadiazol-4-yl)amino]hexanoyl]-sphingosine-1-phosphocholine]", "values": [
      {"measurement": "TLC of NBD-ceramide, intact parasites and whole cell lysate", "value": "expression of ScISC1 restored the ability to degrade sphingomyelin in iscl^−"}
    ]}
  ]
}
